According to patent publication US20100189802A1, “Method for treatment of vascular hyperpermeability” (Scott and White Memorial Hospital and Scott, Sherwood, and …, priority 2007, published 2010):

B1: Angiopoietin-1: an endothelial cell growth factor (protein, UniProt Q15389 16-498, looked up)
Angiopoietin-1: HIGCSNQRRSPENSGRRYNRIQHGQCAYTFILPEHDGNCRESTTDQYNTNALQRDAPHVEPDFSSQKLQHLEHVMENYTQWLQKLENYIVENMKSEMAQIQQNAVQNHTATMLEIGTSLLSQTAEQTRKLTDVETQVLNQTSRLEIQLLENSLSTYKLEKQLLQQTNEILKIHEKNSLLEHKILEMEGKHKEELDTLKEEKENLQGLVTRQTYIIQELEKQLNRATTNNSVLQKQQLELMDTVHNLVNLCTKEGVLLKGGKREEEKPFRDCADVYQAGFNKSGIYTIYINNMPEPKKVFCNMDVNGGGWTVIQHREDGSLDFQRGWKEYKMGFGNPSGEYWLGNEFIFAITSQRQYMLRIELMDWEGNRAYSQYDRFHIGNEKQNYRLYLKGHTGTAGKQSSLILHGADFSTKDADNDNCMCKCALMLTGGWWFDACGPSNLNGMFYTAGQNHGKLNGIKWHYFKGPSYSLRSTTMMIRPLDF

Experiments:
Sprague-Dawley rats = test: Hemorrhagic shock-induced vascular hyperpermeability: FITC-albumin flux in mesenteric postcapillary venules by intravital microscopy; type: in vivo, rat
From the text: For example, in an embodiment of the invention disclosed herein, Sprague-Dawley rats were anesthetized with urethane. Hemorrhagic shock was induced in the anesthetized rats by withdrawing blood to reduce the mean arterial pressure to 40 mm Hg for one hour. The rats were then resuscitated to 90 mmHg by administration of the shed blood and normal saline. Albumin labeled with fluorescein isothiocyanate (FITC) was given intravenously during the period in which shock was present. The mesenteric postcapillary venules in a transilluminated segment of small intestine were examined to quantitate changes in albumin flux using intravital microscopy.

endothelial cells = details: traumatized animals, hemorrhagic shock; Childs et al. 2008; cited from earlier work

Molecule	vascular hyperpermeability induced by hemorrhagic shock-induced apoptosis (Sprague-Dawley rats; alpha-lipoic acid administered to traumatized animals)	vascular hyperpermeability (Sprague-Dawley rats; alpha-lipoic acid, about 100 mg/kg, before the onset of hemorrhagic shock)	vascular hyperpermeability (Sprague-Dawley rats; alpha-lipoic acid, about 100 mg/kg, within 60 minutes after the development of hemorrhagic shock)	vascular hyperpermeability (Sprague-Dawley rats; angiopoietin-1 intravenously, 200 ng/ml, traumatized animals)	vascular hyperpermeability and apoptosis (endothelial cells)
O=C(O)CCCCC1CCSS1 (stereo not drawn) [Alpha-lipoic acid, alpha-lipoic acid]	attenuated the amount of vascular hyperpermeability	effective in reducing the amount of vascular hyperpermeability	effective in reducing the amount of vascular hyperpermeability		
B1				attenuated the amount of vascular hyperpermeability	potent inhibitor of vascular hyperpermeability and apoptosis
